Key:
Assay type in all cases: cell-based
PTK2B = molecular target: T1, PTK2B (Homo sapiens, UniProt Q14289); test: Expression proteomics in THP-1 cells, PTK2B level; details: PTK2B protein log2 fold change, 24 h, 1.0 μM
T1 construct: endogenous in cells; host or cells: THP-1
Experimental: (§1) THP-1 cells were seeded at a concentration of 3×10^6 cells in T175 flasks with 60 mL growth medium (RPM11640+10% FBS). […] of a 10× compound solution prepared in growth medium (DMSO), IAP PROTAC) was added and the cells were treated for the indicated time points (6 or 24 h) at 37° C., 5% CO2. For harvesting the cells were collected into falcon tubes on ice, centrifuged and washed twice in cold PBS (Life technologies). After the last washing step the supernatant was removed and the pellets were snap-frozen in liquid N2 and stored at −80° C. and lysed in 2% SDS for 3 min at 95° C. in a thermomixer (Thermo Fisher Scientific), followed by digestion of DNA with Benzonase at 37° C. for 1.5 h. Lysate was cleared by centrifugation an protein concentration in supernatant was determined by BCA assay.
(§2) Leukemia 25, 89-100 (2011).
(§3) Samples were dried in vacuo and resuspended in 0.05% trifluoroacetic acid in water. […]
(§4) Reporter ion intensities were read from raw data and multiplied with ion accumulation times (the unit is milliseconds) so as to yield a measure proportional to the number of ions;
(§5) Nat Biotech 29, 255-265 (2011). this measure is referred to as ion area Savitski, M. M. et al. Delayed Fragmentation and Optimized Isolation Width Settings for Improvement of Protein Identification and Accuracy of Isobaric Mass Tag Quantification on Orbitrap-Type Mass Spectrometers. […]

MAPK9 = molecular target: T2, MAPK9 (Homo sapiens, UniProt P45984); test: Expression proteomics in THP-1 cells, MAPK9 level; details: MAPK9 protein log2 fold change, 24 h, 1.0 μM
T2 construct: endogenous in cells; host or cells: THP-1
T2 sequence (P45984 whole entry): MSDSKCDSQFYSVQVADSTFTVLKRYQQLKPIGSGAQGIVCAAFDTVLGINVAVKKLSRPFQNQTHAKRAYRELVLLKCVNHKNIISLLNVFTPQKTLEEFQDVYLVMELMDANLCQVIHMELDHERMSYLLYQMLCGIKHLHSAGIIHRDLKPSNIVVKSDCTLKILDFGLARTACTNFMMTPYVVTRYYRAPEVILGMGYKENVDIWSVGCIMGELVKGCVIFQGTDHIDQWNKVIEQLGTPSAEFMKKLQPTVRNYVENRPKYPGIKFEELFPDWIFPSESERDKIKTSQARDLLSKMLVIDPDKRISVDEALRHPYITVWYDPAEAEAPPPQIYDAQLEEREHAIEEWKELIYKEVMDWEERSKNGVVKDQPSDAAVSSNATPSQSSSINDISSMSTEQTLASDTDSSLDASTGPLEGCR
Experimental: as §1, §2, §3, §4, §5

TEC = molecular target: T3, TEC (Homo sapiens, UniProt P42680); test: Expression proteomics in THP-1 cells, TEC level; details: TEC protein log2 fold change, 24 h, 1.0 μM
T3 construct: endogenous in cells; host or cells: THP-1
T3 sequence (P42680 1-631): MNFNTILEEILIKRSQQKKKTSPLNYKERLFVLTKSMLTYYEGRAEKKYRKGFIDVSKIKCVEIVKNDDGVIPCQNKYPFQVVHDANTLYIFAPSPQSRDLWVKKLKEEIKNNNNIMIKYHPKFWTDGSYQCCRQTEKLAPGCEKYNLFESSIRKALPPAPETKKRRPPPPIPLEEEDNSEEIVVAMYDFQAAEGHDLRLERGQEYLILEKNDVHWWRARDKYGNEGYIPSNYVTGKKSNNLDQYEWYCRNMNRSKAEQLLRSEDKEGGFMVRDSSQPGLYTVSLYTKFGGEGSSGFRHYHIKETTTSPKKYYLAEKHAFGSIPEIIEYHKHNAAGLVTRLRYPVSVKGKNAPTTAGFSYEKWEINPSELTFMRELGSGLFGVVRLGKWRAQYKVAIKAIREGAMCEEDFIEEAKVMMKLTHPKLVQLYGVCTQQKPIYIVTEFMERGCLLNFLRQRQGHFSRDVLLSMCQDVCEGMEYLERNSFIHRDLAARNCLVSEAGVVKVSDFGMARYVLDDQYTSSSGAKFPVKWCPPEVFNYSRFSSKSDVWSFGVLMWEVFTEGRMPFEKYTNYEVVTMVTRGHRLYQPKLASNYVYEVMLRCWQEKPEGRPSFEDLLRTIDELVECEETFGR
Experimental: as §1, §2, §3, §4, §5

PTK2 = molecular target: T4, PTK2 (Homo sapiens, UniProt Q05397); test: Expression proteomics in THP-1 cells, PTK2 level; details: PTK2 protein log2 fold change, 24 h, 1.0 μM
T4 construct: endogenous in cells; host or cells: THP-1
T4 sequence (Q05397 whole entry): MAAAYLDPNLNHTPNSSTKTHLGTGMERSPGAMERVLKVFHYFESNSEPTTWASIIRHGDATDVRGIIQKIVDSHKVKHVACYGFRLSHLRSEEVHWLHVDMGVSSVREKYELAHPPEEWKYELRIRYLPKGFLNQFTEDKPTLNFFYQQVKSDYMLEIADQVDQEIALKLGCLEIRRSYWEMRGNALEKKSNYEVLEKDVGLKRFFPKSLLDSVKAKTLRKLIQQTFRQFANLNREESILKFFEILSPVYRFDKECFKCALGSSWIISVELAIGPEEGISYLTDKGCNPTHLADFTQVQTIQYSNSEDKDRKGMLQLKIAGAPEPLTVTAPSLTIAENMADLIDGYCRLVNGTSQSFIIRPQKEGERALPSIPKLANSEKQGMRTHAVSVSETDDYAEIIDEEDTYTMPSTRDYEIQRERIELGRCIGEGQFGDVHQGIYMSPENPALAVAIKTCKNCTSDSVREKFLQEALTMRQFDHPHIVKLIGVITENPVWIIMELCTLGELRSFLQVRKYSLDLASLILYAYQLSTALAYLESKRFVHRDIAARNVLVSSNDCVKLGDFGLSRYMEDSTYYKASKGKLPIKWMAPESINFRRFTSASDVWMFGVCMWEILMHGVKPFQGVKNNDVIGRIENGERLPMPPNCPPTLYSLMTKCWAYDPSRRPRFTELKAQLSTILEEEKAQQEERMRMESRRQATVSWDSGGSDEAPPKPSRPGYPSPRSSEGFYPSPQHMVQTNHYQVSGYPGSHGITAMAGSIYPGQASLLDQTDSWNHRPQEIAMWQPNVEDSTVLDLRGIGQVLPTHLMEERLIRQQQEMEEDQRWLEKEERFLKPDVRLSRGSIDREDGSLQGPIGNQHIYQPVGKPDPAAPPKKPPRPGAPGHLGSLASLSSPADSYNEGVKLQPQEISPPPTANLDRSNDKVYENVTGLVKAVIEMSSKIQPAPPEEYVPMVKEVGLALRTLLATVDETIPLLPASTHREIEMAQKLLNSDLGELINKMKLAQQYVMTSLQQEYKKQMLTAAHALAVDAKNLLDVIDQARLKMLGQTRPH
Experimental: as §1, §2, §3, §4, §5

AKT2 = molecular target: T5, AKT2 (Homo sapiens, UniProt P31751); test: Expression proteomics in THP-1 cells, AKT2 level; details: AKT2 protein log2 fold change, 24 h, 1.0 μM
T5 construct: endogenous in cells; host or cells: THP-1
T5 sequence (P31751 whole entry): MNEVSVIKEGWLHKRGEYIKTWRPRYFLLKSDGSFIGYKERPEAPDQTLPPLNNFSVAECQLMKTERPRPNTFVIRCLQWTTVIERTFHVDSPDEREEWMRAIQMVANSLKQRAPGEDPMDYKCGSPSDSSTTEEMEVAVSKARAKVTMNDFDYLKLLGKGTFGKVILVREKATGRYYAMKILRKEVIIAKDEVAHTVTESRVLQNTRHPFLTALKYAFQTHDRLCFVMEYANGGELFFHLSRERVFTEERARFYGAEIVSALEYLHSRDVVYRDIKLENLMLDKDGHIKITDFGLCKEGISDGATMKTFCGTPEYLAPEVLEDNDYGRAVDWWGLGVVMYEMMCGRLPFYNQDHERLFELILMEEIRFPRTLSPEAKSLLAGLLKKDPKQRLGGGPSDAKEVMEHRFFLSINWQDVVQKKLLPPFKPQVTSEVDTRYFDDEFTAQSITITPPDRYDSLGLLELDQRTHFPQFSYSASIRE
Experimental: as §1, §2, §3, §4, §5

T1 sequence (Q14289 whole entry): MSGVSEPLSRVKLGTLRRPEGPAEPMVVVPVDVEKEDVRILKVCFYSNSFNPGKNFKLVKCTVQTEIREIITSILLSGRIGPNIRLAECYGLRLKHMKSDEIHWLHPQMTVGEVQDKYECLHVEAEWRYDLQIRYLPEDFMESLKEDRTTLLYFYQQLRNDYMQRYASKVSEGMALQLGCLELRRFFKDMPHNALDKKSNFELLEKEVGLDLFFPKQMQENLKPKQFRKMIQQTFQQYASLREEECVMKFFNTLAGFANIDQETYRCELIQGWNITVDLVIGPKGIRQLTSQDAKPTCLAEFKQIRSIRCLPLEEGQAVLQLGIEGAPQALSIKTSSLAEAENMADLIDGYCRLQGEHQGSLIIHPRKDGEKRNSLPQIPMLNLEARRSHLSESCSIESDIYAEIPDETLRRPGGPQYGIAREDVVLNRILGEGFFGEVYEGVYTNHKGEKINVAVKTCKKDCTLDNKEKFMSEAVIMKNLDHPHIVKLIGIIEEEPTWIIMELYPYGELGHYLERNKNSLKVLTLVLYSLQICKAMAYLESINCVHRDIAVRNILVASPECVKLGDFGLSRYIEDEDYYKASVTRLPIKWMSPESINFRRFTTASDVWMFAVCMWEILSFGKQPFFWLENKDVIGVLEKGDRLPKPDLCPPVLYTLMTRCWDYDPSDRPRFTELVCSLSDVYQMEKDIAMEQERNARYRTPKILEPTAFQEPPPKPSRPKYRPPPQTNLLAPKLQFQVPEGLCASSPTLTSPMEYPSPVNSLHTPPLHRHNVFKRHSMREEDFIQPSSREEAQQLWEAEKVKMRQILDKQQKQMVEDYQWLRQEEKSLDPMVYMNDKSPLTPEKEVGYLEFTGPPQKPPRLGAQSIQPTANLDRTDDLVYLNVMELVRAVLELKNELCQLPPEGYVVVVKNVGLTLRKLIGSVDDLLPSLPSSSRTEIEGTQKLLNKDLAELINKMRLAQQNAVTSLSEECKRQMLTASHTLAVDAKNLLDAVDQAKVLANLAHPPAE

`CNC(=O)c1ccccc1Nc1nc(Nc2ccc(N3CCN(CCOCCOCCOCCOc4ccc5c(c4)CN(C(=O)[C@@H](NC(=O)[C@H](C)NC)C(C)(C)C)[C@H](C(=O)N[C@@H]4CCCc6ccccc64)C5)CC3)cc2)ncc1Cl` [IAP, (S)-7-(2-(2-(2-(2-(4-(4-((5-Chloro-4-((2-(methylcarbamoyl)phenyl)amino)pyrimidin-2-yl)amino)phenyl)piperazin-1-yl)ethoxy)ethoxy)ethoxy)ethoxy)-2-((S)-3,3-dimethyl-2-((S)-2-(methylamino)propanamido)butanoyl)-N-((R)-1,2,3,4-tetrahydronaphthalen-1-yl)-1,2,3,4-tetrahydroisoquinoline-3-carboxamide] was tested. Which “log2fc_IAP_24 h_1.0 μM_n1” value (PTK2B; replicate n1) did it give?
The value was −1.78.

And the “log2fc_IAP_24 h_1.0 μM_n2” value (PTK2B; replicate n2)?
The value was −2.06.

What about the “log2fc_IAP_24 h_1.0 μM_n1” value (MAPK9; replicate n1) of the same molecule?
Its value is −1.22.

What about the “log2fc_IAP_24 h_1.0 μM_n2” value (MAPK9; replicate n2) of the same molecule?
Its value is −1.31.

And the “log2fc_IAP_24 h_1.0 μM_n1” value (TEC; replicate n1)?
Its value is −1.79.

What about the “log2fc_IAP_24 h_1.0 μM_n2” value (TEC; replicate n2) of the same molecule?
The value was −2.04.

What about the “log2fc_IAP_24 h_1.0 μM_n1” value (PTK2; replicate n1) of the same molecule?
Its value is −0.90.

What about the “log2fc_IAP_24 h_1.0 μM_n2” value (PTK2; replicate n2) of the same molecule?
The value was −1.00.

What about the “log2fc_IAP_24 h_1.0 μM_n1” value (AKT2; replicate n1) of the same molecule?
Its value is −1.01.

And the “log2fc_IAP_24 h_1.0 μM_n2” value (AKT2; replicate n2)?
Its value is −0.89.
